Source: US12037306B2, “Methods of treating neurofibromatosis type 1 with N-((R))-2,3-dihydroxypropoxy)-3,4-difluoro-2-(2-fluoro-4-iodophenylamino)-benzamide” (Warner-Lambert Company LLC, priority 2021, dated 2024)

Test: Form IV stability by XRPD comparison to a reference standard after storage
Type: physicochemical
Settings: stored at 25° C. and 65% relative humidity
Description: In some aspects, the XRPD pattern is generated using a PANALYTICAL® X'Pert Pro diffractometer using Ni-filtered Cu Kα (45 kV/40 mA) radiation and a step size of 0.03° 2θ with a X'CELERATOR® Real Time Multi-Strip detector, configured (a) on the incidental beam side as follows: variable divergence slits (10 mm irradiated length), 0.04 rad Soller slits, fixed anti-scatter slit (0.50°), and 10 mm beam mask, and (b) on the diffracted beam side as follows: variable anti-scatter slit (10 mm observed length) and 0.04 rad Soller slit or a BRUKER® D8® ADVANCE™ system using Cu Kα (40 kV/40 mA) radiation and a step size of 0.03° 2θ with a LYNXEYE™ detector, configured (a) on the incidental beam side as follows: Göebel mirror, mirror exit slit (0.2 mm), 2.5° Soller slit, beam knife, and (b) on the diffracted beam side as follows: anti-scatter slit (8 mm) and 2.5° Soller slit, wherein samples are mounted flat on zero-background Si wafers. In some aspects, the DSC pattern is generated using a TA Instruments Q100 or Q2000 differential scanning calorimeter at a rate of temperature increase of about 15° C./min.
Stability of Form IV material was determined by comparing the XRPD spectrum of a batch to a reference standard XRPD spectrum. This analysis was performed at batch release, and the XRPD spectrum obtained corresponded to that of the reference standard of Form IV (FIG. 2). […]

In the case of `O=C(NOC[C@H](O)CO)c1ccc(F)c(F)c1Nc1ccc(I)cc1F` [Form IV, N—((R)-2,3-dihydroxypropoxy)-3,4-difluoro-2-(2-fluoro-4-iodo-phenylamino)-benzamide], the “Changes in the XRPD spectrum over time (stability of Form IV)” value (XRPD at 68 months (FIG. 3A)) was “Undetectable changes” and the “Changes in the XRPD spectrum over time (stability of Form IV)” value (XRPD at 140 months (FIG. 3B)) was “Undetectable changes”.
